Test results published in US12240862B2, “Inhibitors of peptidylarginine deiminases” (Gilead Sciences, Inc., priority 2020, dated 2025).

Target: T1, human PAD4 (Homo sapiens, UniProt Q9UM07)
T1 construct: human PAD4 (NM_012387), A2P663, was PCR amplified; His-SUMO (N, cleaved yes); made in house; host or cells: E. coli BL21(DE3)
Experiment: In vitro PAD4 BAEE biochemical assay
Conditions: human PAD4, BAEE substrate; 5 nM PAD4, 2 mM calcium chloride, 3 mM BAEE; geometric mean of multiple experiments
Summary of the method: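 Tag-free recombinant hPAD4 (5 nM), 2 mM CaCl2, 3 mM BAEE, 50 mM MOPS pH 7.6, 2 mM DTT; 30 min compound preincubation, 2 h reaction, all 25 °C. EDTA quench; ammonia read via o-phthalaldehyde amine coupling, 1 h.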

T1 sequence (Q9UM07 2-663): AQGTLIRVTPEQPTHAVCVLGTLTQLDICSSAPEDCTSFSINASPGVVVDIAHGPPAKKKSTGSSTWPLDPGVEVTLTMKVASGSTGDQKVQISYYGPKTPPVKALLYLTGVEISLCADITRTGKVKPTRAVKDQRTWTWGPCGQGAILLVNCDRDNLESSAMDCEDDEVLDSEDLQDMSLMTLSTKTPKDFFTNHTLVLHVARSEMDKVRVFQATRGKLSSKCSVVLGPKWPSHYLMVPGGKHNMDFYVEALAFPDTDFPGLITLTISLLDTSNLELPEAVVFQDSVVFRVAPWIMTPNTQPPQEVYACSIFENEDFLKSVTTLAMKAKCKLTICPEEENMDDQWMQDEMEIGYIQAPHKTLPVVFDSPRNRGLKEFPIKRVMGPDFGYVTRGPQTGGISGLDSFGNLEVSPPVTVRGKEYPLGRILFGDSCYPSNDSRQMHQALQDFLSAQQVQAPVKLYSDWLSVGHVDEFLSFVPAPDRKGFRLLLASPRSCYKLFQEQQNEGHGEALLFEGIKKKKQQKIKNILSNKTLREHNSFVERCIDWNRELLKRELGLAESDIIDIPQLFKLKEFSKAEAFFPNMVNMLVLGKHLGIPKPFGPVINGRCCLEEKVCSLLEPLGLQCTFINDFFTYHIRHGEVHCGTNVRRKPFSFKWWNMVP

| Compound | IC50 |
| --- | --- |
| COc1cc(C(=O)NC[C@H]2CCCN2)cc2nc(-c3cc4ccc(N(C(F)F)S(C)(=O)=O)nc4n3CC3CC3)c(C)n12 [Example 304, 2-[1-(cyclopropylmethyl)-6-[difluoromethyl (methylsulfonyl)amino]pyrrolo[2,3-b]pyridin-2-yl]-5-methoxy-3-methyl-~{N}-[[(2~{R})-pyrrolidin-2-yl]methyl] imidazo[1,2-a]pyridine-7-carboxamide] | 19200 nM |
| COc1cc(C(=O)N2[C@H]3CC[C@@H]2[C@H](N)C3)cc2nc(-c3cc4ccc(C5CCN(C(=O)N6CCCC6)C5)nc4n3CC3CC3)c(C)n12 (some centres unmarked) [Example 529, [(1~{R},2~{R},4~{S})-2-amino-7-azabicyclo [2.2.1]heptan-7-yl]-[2-[1-(cyclopropylmethyl)-6-[1-(pyrrolidine-1-carbonyl)pyrrolidin-3-yl]pyrrolo [2,3-b]pyridin-2-yl]-5-methoxy-3-methylimidazo [1,2-a]pyridin-7-yl] methanone] | 151 nM |
| COc1cc(C(=O)NC[C@@H]2CCCCN2)cc2nc(-c3cc4ccc(N(C(F)F)S(C)(=O)=O)nc4n3CC3CC3)c(C)n12 [Example 294, 2-[1-(cyclopropylmethyl)-6-[difluoromethyl (methylsulfonyl)amino]pyrrolo[2,3-b]pyridin-2-yl]-5-methoxy-3-methyl-~ {N}-[[(2~{S})-piperidin-2-yl]methyl]imidazo[1,2-a]pyridine-7-carboxamide] | 38400 nM |
| COc1cc(C(=O)N2C[C@H]3C[C@H](O)[C@@H]2[C@@H]3N)cc2nc(-c3cc4ccc([C@@H](C)NC(=O)C(C)(C)C)nc4n3CC3CC3)c(C)n12 [Example 173, N-((R)-1-(2-(7-((1S,4R,6S,7R)-7-amino-6-hydroxy-2-azabicyclo [2.2.1]heptane-2-carbonyl)-5-methoxy-3-methylimidazo [1,2-a]pyridin-2-yl)-1-(cyclopropylmethyl)-1H-pyrrolo[2,3-b]pyridin-6-yl)ethyl)pivalamide] | 497 nM |
| CCOC(=O)CCC(=O)N[C@H](C)c1ccc2cc(-c3nc4cc(C(=O)N5[C@H]6CC[C@@H]5[C@H](N)C6)cc(OC)n4c3C)n(CC3CC3)c2n1 [Example 152, ethyl 4-[[(1~{R})-1-[2-[7-[(1~{R},2~{R},4~{S})-2-amino-7-azabicyclo[2.2.1]heptane-7-carbonyl]-5-methoxy-3-methylimidazo [1,2-a]pyridin-2-yl]-1-(cyclopropylmethyl)pyrrolo [2,3-b]pyridin-6-yl]ethyl]amino]-4-oxobutanoate] | 63.5 nM |
| COCC1(C(=O)N[C@H](C)c2ccc3cc(-c4nc5cc(C(=O)N6[C@H]7CC[C@@H]6[C@H](N)C7)cc(OC)n5c4C)n(CC4CC4)c3n2)CC1 [Example 68, ~{N}-[(1~{R})-1-[2-[7-[(1~{R},2~{R},4~{S})-2-amino-7-azabicyclo [2.2.1]heptane-7-carbonyl]-5-methoxy-3-methylimidazo [1,2-a]pyridin-2-yl]-1-(cyclopropylmethyl)pyrrolo[2,3-b]pyridin-6-yl]ethyl]-1-(methoxymethyl) cyclopropane-1-carboxamide] | 45.3 nM |
| COc1cc(C(=O)N2[C@H]3CC[C@@H]2[C@H](N)C3)cc2nc(-c3cc4ccc([C@@H](C)NC(=O)C(C)C)nc4n3CC3CC3)c(C)n12 [Example 89, ~{N}-[(1~{R})-1-[2-[7-[(1~{R},2~{R},4~{S})-2-amino-7-azabicyclo[2.2.1]heptane-7-carbonyl]-5-methoxy-3-methylimidazo [1,2-a]pyridin-2-yl]-1-(cyclopropylmethyl)pyrrolo [2,3-b]pyridin-6-yl]ethyl]-2-methylpropanamide] | 40.1 nM |
| COc1cc(C(=O)N2CCC[C@@H](N)C2)cc2nc(-c3cc4ccc([C@@H](C)NC(=O)OCC(C)(C)C)nc4n3CC3CC3)c(C)n12 [Example 256, 2,2-dimethylpropyl~{N}-[(1~{R})-1-[2-[7-[(3~ {R})-3-aminopiperidine-1-carbonyl]-5-methoxy-3-methylimidazo[1,2-a]pyridin-2-yl]-1-(cyclopropylmethyl)pyrrolo [2,3-b]pyridin-6-yl]ethyl] carbamate] | 486 nM |
| COc1cc(C(=O)N2[C@H]3CC[C@@H]2[C@H](N)C3)cc2nc(-c3cc4ccc([C@@H](C)NC(=O)N5CC6CC6C5)nc4n3CC3CC3)c(C)n12 (some centres unmarked) [Example 246, ~{N}-[(1~{R})-1-[2-[7-[(1~{R},2~{R},4~{S})-2-amino-7-azabicyclo[2.2.1]heptane-7-carbonyl]-5-methoxy-3-methylimidazo [1,2-a]pyridin-2-yl]-1-(cyclopropylmethyl)pyrrolo [2,3-b]pyridin-6-yl]ethyl]-3-azabicyclo[3.1.0]hexane-3-carboxamide] | 82.2 nM |
| COc1cc(C(=O)N2CCC[C@@H](N)C2)cc2nc(-c3cc4ccc(C(C)n5ccnn5)nc4n3CC3CC3)c(C)n12 (some centres unmarked) [Example 537, [(3~{R})-3-aminopiperidin-1-yl]-[2-[1-(cyclopropylmethyl)-6-[1-(triazol-1-yl)ethyl]pyrrolo[2,3-b]pyridin-2-yl]-5-methoxy-3-methylimidazo[1,2-a]pyridin-7-yl]methanone] | 571 nM |
| CCc1ccc2cc(-c3nc4cc(C(=O)N5CC6(CNCCO6)C5)cc(OC)n4c3C)n(CC3CC3)c2n1 [Example 595, [2-[1-(cyclopropylmethyl)-6-ethylpyrrolo[2,3-b]pyridin-2-yl]-5-methoxy-3-methylimidazo[1,2-a]pyridin-7-yl]-(5-oxa-2,8-diazaspiro[3.5]nonan-2-yl) methanone] | 31500 nM |
| COc1cc(C(=O)N2C[C@H]3CNCC[C@H]32)cc2nc(-c3cc4ccc(N(C(F)F)S(C)(=O)=O)nc4n3CC3CC3)c(C)n12 [Example 284, ~{N}-[1-(cyclopropylmethyl)-2-[7-[(1~{R},6~{R})-3,7-diazabicyclo[4.2.0]octane-7-carbonyl]-5-methoxy-3-methylimidazo[1,2-a]pyridin-2-yl]pyrrolo[2,3-b]pyridin-6-yl]-~{N}-(difluoromethyl) methanesulfonamide] | 13400 nM |
| COc1cc(C(=O)N2[C@H]3CC[C@@H]2[C@H](N)[C@H](OCC(F)F)C3)cc2nc(-c3cc4ccc([C@@H](C)NC(=O)C56CC(F)(C5)C6)nc4n3CC3CC3)c(C)n12 [Example 18] | 578 nM |

Test system: models of chronic and acute inflammatory diseases
Experiment: not given
Conditions: MRL/lpr lupus, hemorrhagic shock in rats, CLP sepsis, DSS-colitis, ApoE-/- arteriosclerosis, diabetic wound healing models; cited from earlier work

| Compound | clinical, inflammatory, histopathological and mechanical end points, NETosis, outcome |
| --- | --- |
| NC(=O)[C@H](CCCN=C(N)CCl)NC(=O)c1ccccc1 [chloroamidine] | reduction of clinical, inflammatory, histopathological and mechanical end points |
| YW3-56 | reduction of clinical, inflammatory, histopathological and mechanical end points |

Test system: murine CIA model
Experiment: not given
Conditions: prophylactic treatment; cited from earlier work

| Compound | clinical and histological scores |
| --- | --- |
| GSK199 | improvement of clinical and histological scores |
| NC(=O)[C@H](CCCN=C(N)CCl)NC(=O)c1ccccc1 [chloroamidine] | improvement of clinical and histological scores |
